Legend:
T-ALL PDX cells = test: Transcriptome profiling (Affymetrix microarray) of T-ALL PDX in response to anti-CD3; format: in vivo, NSG mice; conditions: 40 μg, 6 hours; for expression of genes of interest (TNFR super family pathway, PD1): FIG. 1B; for TCR-induced signature: number of deregulated genes: 2X, p-value<0.05, common to both monoclonal antibodies, in vivo
Source text: Leukemic cells were then collected, flow-cytometry sorted, RNA isolated and analyzed using human Affymetrix arrays. […] FC: Fold Change. C RNA expression analysis (digitalized numeration of transcripts-mRNA) of genes of interest in M106 xenograft overtime after OKT3 treatment using Nanostring arrays: TNFα, LTα, TNFRSF9 (4-1BB), TNFRSF1B (TNFR2), TNFRSF4 (OX40) and PDCD1 (PD1). D Flow cytometry analysis of TNFRSF1B (TNFR2), TNFRSF1A (TNFR1), TNFRSF9 (4-1BB), TNFRSF4 (OX40) and PDCD1 (PD 1) cell surface expression in leukemic cells isolated from mice treated with 40μg of control IgG or OKT3 for 24h.
Total RNA was isolated from flow-cytometry-sorted leukemic cells (FSChi, hCD7+, hCD 45+) (6 hours following treatment with either 40 μg anti-CD 3 mAb or control IgG 2a antibody), using the Rneasy kit (QIAGEN). cRNA synthesis and hybridization of GeneChip Human Gene 2.0ST Array (Affymetrix) were according to the manufacturer's instructions, as described (http: //www-microarrays. u-strasbg. fr). A paired Student's t-test was performed to compare gene intensities in the different biological replicates. […] Hierarchical clustering analysis and pathway analyses on regulated genes (KEGG) were performed by Genosplice company.

[1] = system: caspase 8 activity in T-ALL cells; test: Caspase 8 activity by flow cytometry in primary leukemic cells from treated leukemic mice; parameters: species or system NSG mice; conditions: in vivo, 6 h; FIG. 2
Procedure: FIG. 2: Caspase 8 activity as measured by flow cytometry in primary leukemic cells collected from leukemic mice treated by control IgG (n=3) or anti-CD3 (OKT3) (n=3) mAbs for 6 h.
Cell suspensions prepared from mouse lymphoid organs, bone marrow, or blood were stained with fluorochrome-labeled antibodies and analyzed on a FACSCanto cytometer (BD Biosciences), as recommended by manufacturer. Data are analyzed using Diva, CellQuest (BD Biosciences) and FlowJo (TreeStar) softwares. Antibodies used are: CD7-FITC (4H9), CD45-APC (2D4) (eBioscience), PD1-Alexa Fluor 647 (EH12.2H7) (Biolegend).

[2] = in vivo; cited from earlier work
[3] = system: TCRαβ+ and TCRγδ+ T-ALL patients-derived xenografts; conditions: cited from earlier work

Row | Substance | expression of genes of interest (TNFR super family pathway, PD1) (T-ALL PDX cells) | TCR-induced signature: number of deregulated genes (T-ALL PDX cells) | caspase 8 activity in T-ALL cells [1] | adverse effects in humans [2] | final outcome of monotherapy ([3]; mice carrying TCR+ T-ALL PDX) | anti-leukemic effects over time ([3]; monotherapy of T-ALL PDX) | host survival ([3]; monotherapy of T-ALL PDX) | leukemic cells apoptosis ([3]; monotherapy of T-ALL PDX) | remission ([3]; monotherapy of T-ALL PDX)
1 | OKT3: anti-CD3ε monoclonal antibody (IgG2a) | significantly upregulated | ~600 | fast induction |  |  |  |  |  | 
2 | foralumab: a fully human anti-CD3 mAb |  |  |  | only minor adverse effects | leukemia relapse and resistance to TCR-directed therapy | profound anti-leukemic effects | improved host survival | within hours | durable remission
3 | teplizumab: a humanized, mutated version of OKT3 which is FDA-approved in prevention of type I diabetes | significantly upregulated | ~600 |  | only minor adverse effects |  |  |  |  | 

Reference: patent US20260284190A1, “METHODS FOR THE TREATMENT OF T-CELL ACUTE LYMPHOBLASTIC LEUKEMIA” (Institut Curie, priority 2023, published 2026)
